Source: patent USRE47528E1, “Protease for wound conditioning and skin care” (B.R.A.I.N. BIOTECHNOLOGY RESEARCH AND INFORMATION NETWORK AG, priority 2009, dated 2019)
Entries after “also recorded” stand apart in the source; their conditions may differ.

Key:
larval secretions = settings: cited from earlier work
debrilase = assay: Liquid phase activity assay and inhibitory profiling (BODIPY-FL-Casein fluorescence assay); format: biochemical, Lucilia sericata; settings: for inhibition of debrilase activity: PMSF 5 mmol/l, APMSF 1 mmol/l
Procedure: Quantification of proteolytic activity was conducted by a fluorescence assay in 96-well plates with BODIPY-FL-Casein (Molecular Probes) used as substrate. Hereby, on the undigested substrate casein the labelling molecules are in close contact to each other and therefore fluorescence is suppressed by a quenching mechanism. In case of hydrolysis these molecules separate from each other and fluorescence can be excited at 485 nm and measured at 520 nm.
A standard assay contained 5 μg/ml BODIPY-FL-Casein in 100 μl PBS buffer and a series of dilutions of protease extract. Samples were incubated for 60 min at 37° C. and fluorescence was measured using a spectrophotometer (NovoStar, BMG LABTECH, Offenburg, Germany), applying the following parameters: excitation 485 nm, emission 520 nm, gain 5, one cycle, 10 flashes. Serine protease inhibitors APMSF (4-amidinophenylmethanesulfonyl fluoride) and PMSF (phenylmethanesulfonyl fluoride) were used for testing the specificity of the isolated protease. The following assay concentration were used:
The recombinant protease type was identified in a liquid assay in a 96-well plate using inhibitors specific for different types of proteases. Herein, specific inhibitors for trypsin (4-amidinophenylmethyl-sulphonyl fluoride, APMSF), serine (phenylmethylsulphonyl fluoride, PMSF), aspartyl-(pepstatin A) and metallo-type proteases (1,10-phenanthroline) were measured.

[1] = system: Lucilia sericata debrilase (trypsin-like serine protease), mature protein SEQ ID NO: 4, pre-propeptide SEQ ID NO: 2; assay: Enzyme kinetics of Debrilase, fluorometric assay with Z-Gly-Gly-Arg-AMC; format: biochemical
Procedure: (§1) Activity of the debrilase was measured in liquid assay using appropriate buffer systems in the range of 3-10 (0.1 to 0.2 M citric acid buffer, pH 3-7; 0.05 M tris buffer, pH 8; 0.1 M carbonate buffer, pH 9-10) and the fluorogenic substrate Z-Gly-Gly-Arg-AMC. The release of 7-amino-4-methylcoumarin (AMC) was measured with a BMC Novostar Fluorometer (λexcitation 365 nm, λemission 440 nm).
Molecular and Enzymatic Properties of Debrilase

casein = assay: Diffusion assay on agar containing casein / skim milk; format: biochemical
Source text: FIG. 1: Diffusion assay on agar containing casein showing a clearing zone around a debrilase secreting clone of E. coli.
Colony forming units resulted from mass excision described above were screened on agar media containing 2% skim milk under selective conditions. Expression of heterologous proteases was driven by the vector comprising inducible Plac promoter. Colonies expressing heterologous proteases were detected by the formation of clearing zones in the turbid Skim Milk medium around the colonies.

fibrin = assay: Solid phase activity assay for fibrinolytic activity (fibrin agar); format: biochemical; settings: fibrin containing agar
Procedure: To identify fibrinolytic activity in extracts of casein degrading clones a solid agar assay was used. For this, a solution A containing 200 mg agarose, 87 mg NaCl and 3 mg CaCl2 were added to 10 ml 0.1 M Tris pH7.4 and incubated at 50° C. To a second solution B containing 10 ml 0.9% NaCl and 100 mg Fibrin (Sigma F3879), 20 μl Plasminogen (2 units/mg, Sigma P7397) e added and pre-incubated at 50° C. Both solutions were combined with 12 μl Thrombin (175-350 NIH units, Sigma T4265) and spread on agar plates using micro-well forming devices. In case of a fibrinolytic activity a clear zone appears in the opaque medium around extract containing cavities.
To identify fibrinolytic activity in casein degrading clones a solid agar assay was used. Therefore a medium A consisting of 10 ml 2× Luria Bertani containing 200 mg agarose, 87 mg NaCl and 3 mg CaCl2 was incubated at 50° C. To a solution B containing 10 ml 0.9% NaCl and 100 mg Fibrin (Sigma F3879), 20 μl plasminogen (2 units/mg, Sigma P7397) was added and pre-incubated at 50° C. […]
Fibrinolytic activity in cell free crude extracts was determined using buffered agar medium containing fibrin. […] Crude extract with fibrinolytic activity was detected by a clear zone around microwells of the recombinant clone harbouring the protease gene of SEQ ID NO. […]

Z-Gly-Gly-Arg-AMC = assay: Fluorometric liquid assay using Z-Gly-Gly-Arg-AMC as substrate; format: biochemical
Procedure: as §1

human PAR2 = molecular target: T1, human PAR2 (Homo sapiens, UniProt P55085); assay: Activation of PAR 2 (calcium imaging) in HEK293 cells; format: cell-based; settings: HEK293 cells endogenously expressing human PAR2, Ca2+-flux read-out
T1 construct: wild type HEK293 cell line endogenously expressing human PAR2; endogenous in cells; host or cells: HEK293
T1 sequence (P55085 26-397): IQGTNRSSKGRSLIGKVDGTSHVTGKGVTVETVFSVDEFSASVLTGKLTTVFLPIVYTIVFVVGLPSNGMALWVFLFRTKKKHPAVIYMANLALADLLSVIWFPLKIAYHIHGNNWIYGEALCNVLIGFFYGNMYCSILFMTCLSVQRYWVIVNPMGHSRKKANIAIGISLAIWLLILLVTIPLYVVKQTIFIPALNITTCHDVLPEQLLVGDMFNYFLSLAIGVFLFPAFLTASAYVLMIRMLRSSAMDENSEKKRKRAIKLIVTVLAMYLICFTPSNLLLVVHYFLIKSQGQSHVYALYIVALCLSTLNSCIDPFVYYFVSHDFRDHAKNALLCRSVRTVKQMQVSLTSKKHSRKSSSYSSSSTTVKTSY
Procedure: The activity of debrilase as agonist of PAR 2 was monitored over time in a cell based fluorescence assay by use of a wild type HEK293 cell line endogenously expressing human PAR2. In brief, 1 day prior to performing the assay, HEK293 cells expressing human PAR2 were plated onto 96-well, black-walled, assay plates, at a density of 45,000 cells per well. Using a 96-well microplate reader (FlexStation®, Molecular Devices, Sunnyvale, Calif.), the change of the cellular calcium concentration was monitored by use of the calcium sensitive fluorescent dye fluo-4 (excitation 494 nm, emission 516 nm). The PAR 2 agonist trypsin (8 nM) was used as positive control. The dye-loaded cells in plates were placed into the fluorescence microplate reader to monitor fluorescence (excitation 488 nm, emission 520 nm) change after the addition of 50 μl assay buffer (118 mM NaCl; 4.7 mM KCl; 1.2 mM MgSO4; 1.2 mM KH2PO4 4.2 mM […]; 1.3 mM CaCl2; 10 mM HEPES (pH: 7.4)) supplemented with an agonist. Calcium mobilization was quantified as the change of peak fluorescence (ΔF) over the baseline level (F). Data were expressed as the mean S.E. of the ΔF/F value (=RFU, relative fluorescence units) of replicated independent samples. The analysis was done with the software of the FlexStation®.

Tosyl-Gly-Pro-Arg-AMC = assay: Proteolytic activity against Tosyl-Gly-Pro-Arg-AMC; format: biochemical
Suc-Ala-Ala-Phe-AMC = assay: Proteolytic activity against Suc-Ala-Ala-Phe-AMC; format: biochemical

Molecule: c1cnc2c(c1)ccc1cccnc12 [1,10-phenanthroline]
- inhibition of degradation of laminin and fibronectin by larval secretions (larval secretions): not significantly

Molecule: N=C(N)c1ccc(CS(=O)(=O)F)cc1 [APMSF, 4-amidinophenylmethanesulfonyl fluoride]
- inhibition of proteolytic activity of debrilase against casein and fibrin (debrilase): inhibited
- inhibition of debrilase activity (debrilase): inhibited completely
- inhibition of degradation of laminin and fibronectin by larval secretions (larval secretions): not significantly

Molecule: O=S(=O)(F)Cc1ccccc1 [PMSF, phenylmethanesulfonyl fluoride]
- inhibition of proteolytic activity of debrilase against casein and fibrin (debrilase): inhibited
- inhibition of debrilase activity (debrilase): inhibited completely
- inhibition of degradation of laminin and fibronectin by larval secretions (larval secretions): inhibited

Molecule: Cc1cc(=O)oc2cc(NC(=O)[C@H](CCCNC(=N)N)NC(=O)CNC(=O)CNC(=O)OCc3ccccc3)ccc12 [Z-Gly-Gly-Arg-AMC]
- Kcat ([1]; Table 1, substrate Z-Gly-Gly-Arg-AMC (footnote)): 37.5 s⁻¹
- Km ([1]; substrate Z-Gly-Gly-Arg-AMC, fluorometric assay): 70 µM

B1: debrilase: recombinant trypsin-like serine protease from Lucilia sericata; mature protein SEQ ID NO: 4 (protein, listed as Lucilia sericata)
chain: IVNGVDTTIQAHPYQVSLQTNNGFHFCGGSIISEDIIVTAAHCMQSYKAYQFKVRLGSTEYDNGGELVAVKSFKYHEGYNPETMVNDVAVIKLATPVRESSKVRYVKLAEKTPATGTPAVVTGWGSKCFLFCQTAPKVLQKVEVDIVDEKTCASSEYKYGDDIKETMLCAYAVKKDACQGDSGGPLVANNKLVGVVSWGKGCALAGYPGVYCDVATVRSWIEKTAKSL
- caseinolytic activity (cleavage of casein) (casein): clearing zone; also recorded: ability to cleave fibrin and casein; also recorded: exhibits proteolytic activity against fibrin, casein
- fibrinolytic activity (cleavage of fibrin) (fibrin): clearing zone; also recorded: ability to cleave fibrin; also recorded: exhibits proteolytic activity against fibrin
- Topt (Z-Gly-Gly-Arg-AMC): 37 °C
- pHopt (Z-Gly-Gly-Arg-AMC): 8
- pH-range of enzymatic activity (Z-Gly-Gly-Arg-AMC; buffer systems in the range of pH 3-10, Z-Gly-Gly-Arg-AMC): 5-10 pH
- specific activity (Z-Gly-Gly-Arg-AMC; fluorometric assay using Z-Gly-Gly-Arg-AMC as substrate): 90 μmol* · min^−1 · mg^−1 enzyme
- activation of protease-activated receptor 2 (PAR 2) (human PAR2): activates the protease-activated receptor PAR-2
- proteolytic activity against Tosyl-Gly-Pro-Arg-AMC (Tosyl-Gly-Pro-Arg-AMC): exhibits proteolytic activity against fibrin, casein and Tosyl-Gly-Pro-Arg-AMC
- proteolytic activity against Suc-Ala-Ala-Phe-AMC (Suc-Ala-Ala-Phe-AMC): not against Suc-Ala-Ala-Phe-AMC
